Laboratory results reported in ChEMBL document CHEMBL4414657, “Psiguadiols A-J, Rearranged Meroterpenoids as Potent PTP1B Inhibitors from Psidium guajava” (J Nat Prod, 2019).

Tests used:
[1] = molecular target: T1, Tyrosine-protein phosphatase non-receptor type 1 (Homo sapiens, UniProt P18031); test: Inhibition of PTP1B (unknown origin) using pNPP as substrate incubated for 30 mins by ELISA
T1 sequence (P18031 whole entry): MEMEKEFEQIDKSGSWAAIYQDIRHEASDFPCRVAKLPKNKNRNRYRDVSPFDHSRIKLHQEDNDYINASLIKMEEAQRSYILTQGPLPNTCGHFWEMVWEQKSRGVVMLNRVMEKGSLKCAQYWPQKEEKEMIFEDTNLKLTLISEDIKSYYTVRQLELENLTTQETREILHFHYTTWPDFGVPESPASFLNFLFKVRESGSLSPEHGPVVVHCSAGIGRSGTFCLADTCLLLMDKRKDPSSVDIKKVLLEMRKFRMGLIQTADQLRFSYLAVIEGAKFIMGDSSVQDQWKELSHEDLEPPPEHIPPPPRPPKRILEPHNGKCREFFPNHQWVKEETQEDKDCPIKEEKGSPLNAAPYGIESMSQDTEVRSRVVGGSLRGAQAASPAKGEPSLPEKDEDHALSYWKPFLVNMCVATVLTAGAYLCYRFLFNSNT

[2] = molecular target: T2, Tyrosine-protein phosphatase non-receptor type 1 (Homo sapiens) (UniProt P18031); test: Inhibition of PTP1B (unknown origin) at 20 ug/ml using pNPP as substrate incubated for 30 mins by ELISA relative to control
T2 sequence (whole entry): T1 sequence (P18031 whole entry)

| IC50 [1] | inhibition [2] | Structure (SMILES) |
| --- | --- | --- |
| 11 µM | > 96% | C=C1CC[C@@H]2[C@H](CC2(C)C)[C@@]2(CC[C@@H]1O)C[C@H](c1ccccc1)c1c(O)c(C=O)c(O)c(C=O)c1O2 |
| 4.7 µM | > 96% | C=C1CC[C@@H]2[C@H](CC2(C)C)[C@@]2(CC[C@H]1O)C[C@H](c1ccccc1)c1c(O)c(C=O)c(O)c(C=O)c1O2 |
| 11.9 µM | > 96% | C/C1=C/C[C@@H]2[C@H](CC2(C)C)[C@@]2(CC[C@H]1O)C[C@H](c1ccccc1)c1c(O)c(C=O)c(O)c(C=O)c1O2 |
| 22.8 µM | > 96% | C=C1CC[C@@H]2[C@H]([C@@H]3Oc4c(C=O)c(O)c(C=O)c(O)c4[C@H](c4ccccc4)[C@@]3(C)CC[C@H]1O)C2(C)C |

More lines, now with the values behind:

| Structure (SMILES) | IC50 [1] | inhibition [2] |
| --- | --- | --- |
| CC(C)[C@@H]1CC[C@@H](C)[C@H]2C[C@@]3(O)[C@H](c4ccccc4)c4c(O)c(C=O)c(O)c(C=O)c4O[C@]3(C)C=C12 | 6.2 µM | > 96% |
| C=C1CC[C@@H]2[C@H]([C@@H]3Oc4c(C=O)c(O)c(C=O)c(O)c4[C@H](c4ccccc4)[C@@]3(C)CC[C@@H]1O)C2(C)C | 22.8 µM | > 96% |
| CC(C)[C@@H]1CC[C@@H](C)[C@]23C[C@@H]4[C@H](c5ccccc5)c5c(O)c(C=O)c(O)c(C=O)c5O[C@]4(C)[C@@H](O)[C@]12O3 | 10.7 µM | > 96% |
| CC(C)[C@@H]1CC[C@@H](C)[C@]2(O)C[C@@H]3[C@H](c4ccccc4)c4c(O)c(C=O)c(O)c(C=O)c4O[C@]3(C)C=C12 | 18.9 µM | > 96% |
| C/C1=C/C[C@@H]2[C@H]([C@@H]3Oc4c(C=O)c(O)c(C=O)c(O)c4[C@H](c4ccccc4)[C@@]3(C)CC[C@@H]1O)C2(C)C | 9.2 µM | > 96% |
| CC(C)[C@@H]1CC[C@@H](C)[C@H]2C[C@]34O[C@H]([C@@]21O)[C@@]3(C)Oc1c(C=O)c(O)c(C=O)c(O)c1[C@H]4c1ccccc1 | 19.1 µM | > 96% |
